Test results reported in publication PMC6359675, “Functionalization of the Chalcone Scaffold for the Discovery of Novel Lead Compounds Targeting Fungal Infections” (Molecules, 2019).
Values joined by “and” are separate entries in the source; they are usually repeats but may differ in a detail not shown here. Identical values can stand only once. Like-named read-outs stand apart in the source and are kept apart here.

Legend:
C. parapsilosis = assay: In vitro susceptibility testing, C. parapsilosis clinical isolate; format: cell-based; details: Lodderomyces parapsilosis
Description: (§1) The yeasts included in the present study were Candida albicans ATCC 10231 (American Type Culture Collection) and a collection of yeasts recovered from a variety of clinical specimens, i.e., blood, urine, genital swabs, bronchoalveolar lavage, nail specimens, collected at the Microbiology Unit, St. Orsola Malpighi University Hospital, Bologna, Italy. The clinical strain isolates were identified by standard procedures, including colony morphology on chromogenic agar (CHROMagar Candida medium, Becton Dickinson, Heidelberg, Germany) and confirmed by MALDI Biotyper System using matrix-assisted laser desorption ionization–time of flight mass spectrometry (MALDI-TOF MS, Bruker Daltonik, GmbH, Germany).
(§2) The in vitro antifungal activity of the chalcones was evaluated by a microdilution broth method in accordance with the guidelines provided by the EUCAST Edef 7.3 [22]. Briefly, all strains were cultured on Sabauraud dextrose, then inocula, prepared at 0.5 McFarland, were diluted 1:20 in RPMI-1640 medium (Gibco®, ThermoFisher Scientific Inc., Waltham, MA, USA), containing glucose 2%, 0.3% levo-glutamine buffered to pH 7.0 with 0.165 M 3-(N-morpholino)propanesulfonic acid (MOPS) to yield 1-5 × 10^5 cells/mL. A total of 100 µL of the yeast suspension was inoculated in a 96-well microplate and incubated with 100 µL of serially 2-fold dilution of the compound in the range 200–6.25 µM. The following controls were included: yeast suspensions incubated in RPMI-1640 culture medium (positive growth control), or supplemented with dilutions of DMSO, or fluconazole (Sigma-Aldrich, St. Louis, MO, USA) as a commercial drug. To check the background turbidity of reagents and the sterility of the procedure, dilutions of each compound were incubated in RPMI-1640 culture medium, without yeast inoculum. The inoculated plate was incubated at 37 °C for 24 h, and subsequently the optical density at 630 nm was measured by the Multiskan Ascent microplate reader (Thermo Fisher Scientific Inc.). The effectiveness of the compounds was expressed as percent inhibition relative to the positive growth control when the inhibition […] the 50% at 100 µM. The IC50 value was determined by interpolation of the dose–response curves generated by plotting the percentages of growth inhibition, relative to the drug-free control (set to 100% of growth), as a function of the tested concentrations (on a logarithm scale). Statistical analysis was carried out by the nonlinear regression method using GraphPad Prism version 5.0 for Windows (GraphPad Software, San Diego, CA, USA). All assays were performed in triplicate and at least two independent experiments were carried out.

C. utilis = assay: In vitro susceptibility testing, C. utilis clinical isolate; format: cell-based; details: Williopsis jadinii
Description: as §1, §2

C. glabrata = assay: In vitro susceptibility testing, C. glabrata clinical isolate; format: cell-based; details: Nakaseomyces glabratus
Description: as §1, §2

S. clavata = assay: In vitro susceptibility testing, S. clavata clinical isolate; format: cell-based
Description: as §1, §2

C. albicans = assay: In vitro susceptibility testing, C. albicans clinical isolate; format: cell-based; details: Candida albicans
Description: as §1, §2

C. lusitaniae = assay: In vitro susceptibility testing, C. lusitaniae clinical isolate; format: cell-based; details: Clavispora lusitaniae
Description: as §1, §2

C. tropicalis = assay: In vitro susceptibility testing, C. tropicalis clinical isolate; format: cell-based; details: Candida tropicalis
Description: as §1, §2

C. neoformans = assay: In vitro susceptibility testing, C. neoformans clinical isolate; format: cell-based; details: Cryptococcus neoformans
Description: as §1, §2

C. albicans ATCC 10231 [1] = assay: In vitro susceptibility testing, microdilution broth (EUCAST), C. albicans control strain; format: cell-based, Candida albicans; details: Candida albicans; for inhibition at 100 µM: ATCC10231, 24 h
Experimental: as §2

R. mucilaginosa = assay: In vitro susceptibility testing, R. mucilaginosa clinical isolate; format: cell-based
Description: as §1, §2

Vero cells (ATCC CCL-81) = assay: Cytotoxicity test on Vero cells (WST8/CCK-8 cell viability); format: cell-based, African green monkey; details: 72 h, up to the highest concentration of 200 μM
Experimental: (§3) African green monkey kidney cells (Vero ATCC CCL-81) were cultured in Eagle’s Minimal Essential Medium (MEM) (Sigma-Aldrich), supplemented with 10% fetal bovine serum (FBS) (Carlo Erba Reagents, Milan, Italy), 100 U/mL penicillin, and 100 µg/mL streptomycin at 37 °C with 5% CO2. For experiments, cells were seeded into 96-well plates at 10^4 cells/well, and incubated at 37 °C for 24 h. Following washes with PBS, cell monolayer was incubated with 100 µL of serially 2-fold dilution of the compound in the range 200–6.25 µM. Both untreated cells and cells incubated with medium containing solvent dilutions were included in each experiment as controls.
(§4) The cell viability was assessed by a WST8-based assay according to the manufacturer’s instructions (CCK-8, Cell Counting Kit-8, Dojindo Molecular Technologies, Rockville, MD, USA). After 72 h of incubation, culture medium was removed from each well, the monolayer was washed with PBS, and 100 µL of fresh medium containing 10 µL of CCK-8 solution were added. Following a 2 h at 37 °C, the absorbance was measured at 450/630 nm; data were calculated as the percentage of the cell viability relative to the untreated controls.

[2] = as above; format: cell-based, African green monkey; details: African green monkey, Vero cells (ATCC CCL-81), Vero cells, mean and 95% confidence interval
Experimental: as §3, §4

C. krusei = assay: In vitro susceptibility testing, C. krusei clinical isolate; format: cell-based; details: Pichia kudriavzevii
Description: as §1, §2

C. albicans ATCC 10231 [3] = assay: Disruption of preformed mature biofilm (biofilm metabolic activity); format: cell-based, Candida albicans; details: compounds added to preformed mature biofilm; statistically significant
C. albicans ATCC 10231 [4] = assay: Agar-invasive hyphal growth (Spider agar assay); format: cell-based, Candida albicans; details: compounds at IC50 values, three days at 37 °C
Experimental: Aliquots (2 µL) of a suspension of C. albicans ATCC 10231 (5 × 10^5 cells/mL) were spotted onto medium in triplicate and the morphology of growing colonies was observed following three days of incubation at 37 °C. Spider agar plates without chalcones, containing DMSO, served as the control. The presence of filaments at the colony edges was determined using a light microscope under 10× magnification.

[5] = clinical isolate, read-out: IC50 C. parapsilosis
[6] = clinical isolate, read-out: IC50 C. utilis
[7] = clinical isolate, read-out: IC50 C. glabrata
[8] = clinical isolate, read-out: IC50 S. clavata
[9] = clinical isolate, mean and 95% confidence interval, read-out: IC50 C. albicans
[10] = clinical isolate, read-out: IC50 C. lusitaniae
[11] = clinical isolate, read-out: IC50 C. tropicalis
[12] = clinical isolate, read-out: IC50 C. neoformans
[13] = ATCC10231, C. albicans ATCC 10231, mean and 95% confidence interval, read-out: IC50
[14] = ATCC10231, C. albicans ATCC 10231, mean and 95% confidence interval, read-out: IC50 [μg/mL]
[15] = clinical isolate, read-out: IC50 R. mucilaginosa
[16] = clinical isolate, read-out: IC50 C. krusei

SMILES | IC50 (C. parapsilosis; [5]) | IC50 (C. utilis; [6]) | IC50 (C. glabrata; [7]) | IC50 (S. clavata; [8]) | IC50 (C. albicans; [9]) | IC50 (C. lusitaniae; [10]) | IC50 (C. tropicalis; [11]) | IC50 (C. neoformans; [12]) | IC50 (C. albicans ATCC 10231 [1]; [13]) [µM] | IC50 (C. albicans ATCC 10231 [1]; [14]) [µg/mL] | inhibition at 100 µM (C. albicans ATCC 10231 [1]; C. albicans ATCC 10231) [%] | IC50 (R. mucilaginosa; [15]) | toxicity on Vero cells, in words (Vero cells (ATCC CCL-81)) | CC50 at 72 h ([2]; read-out: CC50) [µM] | CC50 at 72 h ([2]; read-out: CC50 [μg/mL]) [µg/mL] | IC50 (C. krusei; [16]) | further results
O=C(/C=C/c1ccc(F)cc1)c1cc(Cl)ccc1O [Compound 4, (E)-1-(5-Chloro-2-hydroxyphenyl)-3-(4-fluorophenyl)prop-2-en-1-one] | > 200 µM and > 55.3 µg/mL | 96.7 µM and 26.8 µg/mL | 200 µM and 55.3 µg/mL | 200 µM and 55.3 µg/mL | 69.6 µM and 19.3 µg/mL | 34.6 µM and 9.6 µg/mL | 200 µM and 55.3 µg/mL | 27.1 µM and 7.5 µg/mL | 48.9 | 13.5 | 65.6 ± 3.3 | 81.8 µM and 22.6 µg/mL | did not display any toxicity | > 200 | > 55.3 | 200 µM and 55.3 µg/mL | –
O=C(/C=C/c1cc(F)cc(F)c1)c1cc(Cl)ccc1O [Compound 5, (E)-1-(5-Chloro-2-hydroxyphenyl)-3-(3,5-difluorophenyl)prop-2-en-1-one] | 58.9 µg/mL and 200 µM | 29.5 µg/mL and 100 µM | > 58.9 µg/mL and > 200 µM | 29.5 µg/mL and 100 µM | 29.5 µg/mL and 100 µM | 14.1 µg/mL and 47.9 µM | > 58.9 µg/mL and > 200 µM | 5.3 µg/mL and 18 µM | 51.3 | 15.1 | 62 ± 1.5 | 22.7 µg/mL and 76.9 µM | did not display any toxicity | > 200 | > 58.9 | > 58.9 µg/mL and > 200 µM | reduction of metabolism of sessile cells in mature biofilm (C. albicans ATCC 10231 [3]): < 25%; invasion of Spider medium (filamentation) (C. albicans ATCC 10231 [4]): unable to penetrate the medium
C#CCOc1ccc(C(=O)/C=C/c2ccc([N+](=O)[O-])cc2)c(OC)c1 [Compound 14] | 100 µM and 33.7 µg/mL | 33.7 µM and 11.4 µg/mL | 200 µM and 67.5 µg/mL | 100 µM and 33.7 µg/mL | 31.4 µM and 10.6 µg/mL | 48.8 µM and 14.8 µg/mL | 200 µM and 67.5 µg/mL | 28.4 µM and 9.6 µg/mL | 39.2 | 11.5 | 63.6 ± 6.8 | 100 µM and 33.7 µg/mL | did not display any toxicity | > 200 | > 58.6 | 200 µM and 67.5 µg/mL | –
COc1cc(OCCN2CCN(c3ccccc3)CC2)ccc1C(=O)/C=C/c1ccc(F)cc1 [Compound 28, (E)-3-(4-Fluorophenyl)-1-(2-methoxy-4-(2-(4-phenylpiperazin-1-yl)ethoxy)phenyl)prop-2-en-1-one] | 36.8 µM and 18.3 µg/mL | 29.6 µM and 14.7 µg/mL | 37.1 µM and 18.4 µg/mL | 27.9 µM and 13.8 µg/mL | 48.1 µM and 23.9 µg/mL | 26.5 µM and 13.1 µg/mL | 26.6 µM and 13.2 µg/mL | 17.7 µM and 8.8 µg/mL | 55.9 | 27.7 | 99.1 ± 0.7 | 48.5 µM and 21.4 µg/mL | did not display any toxicity | > 200 | > 99.2 | 63.5 µM and 31.5 µg/mL | IC50 (C. parapsilosis; Table S1, best-fit, C. parapsilosis, read-out: IC50): 31.3 µM; IC50 (C. utilis; Table S1, best-fit, C. utilis, read-out: IC50): 29.6 µM; IC50 (C. glabrata; Table S1, best-fit, C. glabrata, read-out: IC50): 35.9 µM; IC50 (S. clavata; Table S2, best-fit, S. clavata, read-out: IC50): 28 µM; IC50 (C. albicans; Table S1, best-fit, C. albicans clinical isolate, read-out: IC50): 48.1 µM; IC50 (C. lusitaniae; Table S1, best-fit, C. lusitaniae, read-out: IC50): 26.5 µM; IC50 (C. tropicalis; Table S1, best-fit, C. tropicalis, read-out: IC50): 26.6 µM; IC50 (C. neoformans; Table S2, best-fit, C. neoformans, read-out: IC50): 17.7 µM; IC50 (C. albicans ATCC 10231 [1]; ATCC10231, Table S1, variable slope best-fit, C. albicans ATCC 10231, read-out: IC50): 55.6 µM; IC50 (R. mucilaginosa; Table S2, best-fit, R. mucilaginosa, read-out: IC50): 46.2 µM; IC50 (C. krusei; Table S1, best-fit, C. krusei, read-out: IC50): 63.6 µM
